The values that follow come from patent US4921858A, “7-deazaguanines as immunomodulators” (Warner-Lambert Company, priority 1989, dated 1990).

One data set relates to rejection of skin graft. Conditions: dogs; cited from earlier work.
Data set [1] concerns the target T1, purine nucleoside phosphorylase (PNP-4) (Homo sapiens, UniProt P00491).
T1 construct: using human erythrocyte as the enzyme source; from tissue; host or cells: human erythrocyte
T1 sequence (P00491 1-289): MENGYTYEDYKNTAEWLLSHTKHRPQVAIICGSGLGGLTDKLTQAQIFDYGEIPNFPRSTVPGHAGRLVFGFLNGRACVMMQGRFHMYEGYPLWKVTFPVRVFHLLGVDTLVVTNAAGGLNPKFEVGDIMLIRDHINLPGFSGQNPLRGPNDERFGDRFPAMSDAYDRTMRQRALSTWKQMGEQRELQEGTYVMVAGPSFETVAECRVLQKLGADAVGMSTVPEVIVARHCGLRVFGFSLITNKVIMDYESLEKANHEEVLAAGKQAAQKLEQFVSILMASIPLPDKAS
As to the kind of experiment: PNP-4 enzyme assay, radiochemical, formation of [14C]hypoxanthine from [14C]inosine. The conditions noted are these: human erythrocyte enzyme. Format: biochemical. On the procedure: In the purine nucleoside phosphorylase (PNP-4) enzyme assay, an IC50 is achieved at a dose of 1.0 micromoles on a selected compound of the present invention. PNP-4 activity for the compound of formula I is measured radiochemically by measuring the formation of [^14 --C]hypoxanthine from [^14 --C]inosine [Biomedicine, 33, 39 (1980)] using human erythrocyte as the enzyme source.

Another data set concerns T-cells. As to the kind of experiment: HTBA-1 T-cell cytotoxicity in the presence of 2'-deoxyguanosine. Format: cell-based.
A further data set deals with B-cell. Kind of data set: HTBA-1 B-cell toxicity in the presence of 2'-deoxyguanosine. It is filed as cell-based. The conditions noted are these: in the presence of the same amount of 2'-deoxyguanosine.

As to `Nc1nc2c(nc(N)n2[C@@H]2O[C@H](CO)[C@@H](O)[C@H]2O)c(=O)[nH]1` [8-Aminoguanosine], in the data set with rejection of skin graft, the “inhibiting rejection of skin graft” value is recorded as “efficacious for inhibiting rejection of skin graft in dogs”.

With `Nc1nc2c(ccn2Cc2cccs2)c(=O)[nH]1` [Example 2, 2-Amino-7-(2-thienylmethyl)-4-pyrrolo[2,3-d]pyrimidone], the IC50 in data set [1] was 1 µM; in the data set on T-cells (T-cell, + 10 μM 2'-deoxyguanosine, read-out: HTBA-1 T-Cell + 10 μM 2'-d Gua, IC50), 2.3 µM. Besides, in the data set with T-cells (in the presence of 2'-deoxyguanosine, at a similar concentration range), the “selective cytotoxicity for T-cells” value is reported as “selectively cytotoxic for T-cells”. In addition, the “toxicity to B-cell” value with B-cell is given as “nontoxic to B-cell”.
